These results are taken from patent US20220098237A1, “COMPOUND, SYNTHESIS INTERMEDIATE, USE, PHARMACEUTICAL COMPOSITION AND NEUROMODULATORY THERAPEUTIC METHOD” (Remer Consultores Assessoria Empresarial Ltda, priority 2017, published 2022).

One series has as its target T1, human CB1 receptor (Homo sapiens, UniProt P21554).
T1 construct: expressed in transfected cells; host or cells: CHO cells
Description: In vitro radioligand binding, [3H] CP 55940, recombinant CHO cells. The procedure: In vitro binding assays were performed using recombinant CHO cells expressing the human CB1 receptor and the [3H]
Results are expressed as the percentage of binding of the specific control according to formula: […]
And the percentual inhibition of binding of specific control obtained in the presence of the compound of the invention is:
IC50 values (concentration that causes half of maximal inhibition of specific control binding) and Hill (nH) coefficients were determined by nonlinear regression of the competition curves generated with the mean values of the replicates using the Hill equation:
Where Y=specific binding, A=asymptotic left of curve, D=asymptotic right of curve, C=compound concentration, C50=IC50 and nH=curve coefficient/slope factor. This analysis was performed using the Hill software validated by comparison with data generated by Sigmaplot 4.0 software. Inhibition constants (Ki) were calculated using the equation of Chen Prusoff:
Where L=concentration of the radioligand in the assay; KD=affinity of the radioligand for the receptor. A graph is used to determine the KD.

The subject of series [1] is experimental autoimmune encephalomyelitis (EAE). Description: EAE model of Multiple Sclerosis, MOG induction, Endopeptidase 24.15 knockout mice. To be noted: 24.15 knock out mice, FIG. 25. Type of series: in vivo. An excerpt: In this embodiment, transgenic mice knockout of the Endopeptidase 24.15 gene were challenged with MOG (Myelin Oligodendrocyte Glycoprotein), with administration of the compound of the invention SEQ ID No. 1 or saline as a control. After the introduction of the disease, a daily evaluation of the symptoms was made, according to Table 11 below.

For another series, the system named is pilocarpine model. Description: Pilocarpine model, oral pre-treatment (salivation, first signal, seizure, death/survival). More on the design: time of occurrence of the first seizure: unit not given here. In kind it is in vivo, Mus musculus. The procedure:
In some examples, the neuromodulatory/neuroprotective/anticonvulsive effects of the composition of the invention have been evaluated in vivo by oral administration to animals. The pharmaceutical composition of the invention was administered to mammals (Mus musculus or mouse) with an oral dose of treatment with different embodiments of the compound of the invention, compared to other compounds or to saline control. In these experiments, the test compounds were administered orally 10 minutes prior to (intraperitoneal) administration of pilocarpine. Pilocarpine hydrochloride (320 mg/kg, Merck), dissolved in 0.9% sterile saline, was given intraperitoneally for induction of SE (status epileticus) (Turski et al., 1983). In the Turski model, the neurotoxic effects begin about 15-25 minutes after the injection of Pilo, with the occurrence of motor and limbic seizures, the animals evolving to a state of continuous (clonic) seizures that characterize SE Sanabria and Cavalheiro, 2000).
In this embodiment, the anticonvulsive effect of the composition of the invention prepared according to Example 2 was evaluated by prior administration of the inventive composition and subsequent administration of pilocarpine to animals. FIG. 4 presents the results of the pilocarpine model, indicating the time for the first salivation with the administration of control, cannabidiol (30 mg/kg), the compound of the invention R1-N-AA1-K-AA2-R2, in which embodiment is the tetrapeptide of SEQ ID No. 1 (500 μg/kg).
In this embodiment, the neuromodulatory effect of the composition of the invention prepared according to Example 2 was evaluated by prior administration of the inventive composition and subsequent administration of pilocarpine to animals. Other test compounds were also evaluated as described below. Administration of pilocarpine leads to severe brain injury, neurotoxicity and usually culminates in the death of the animals. This substance was used in the experiments described below but its harmful neuronal/encephalic effects were inhibited by the prior administration of the composition of the present invention: the vast majority of the animals subjected to these experiments had no symptoms related to brain lesions and survived without apparent damage, in contrast to groups of animals treated with other known substances.
The composition of the invention was prepared according to Example 2 with due concentration correction, for comparison of the effects of SEQ ID No. 1, SEQ ID No. 7 and NFK, such compounds having been previously administered to the animal groups.
In this embodiment, the anticonvulsant effect of different embodiments of the compound of the invention with the structure represented by SEQ ID No. 1, SEQ ID No. 7, NFK, FKF, FKL, as well as the NF, FK, KF and KL dipeptides were evaluated in the pilocarpine model.

Series [2] is described as follows: Stability tests under extreme conditions (freezing 24 hours; heating at 100° C. for 10 minutes), HPLC. Type of series: physicochemical. An excerpt:
In the vertical axis the area of the HPLC peak is shown. […] Statistical significance data are also shown, the asterisks indicating: (*) P<0.05 vs Control (***) P<0.005 vs Control; (****) P<0.0001 vs Control.

The next series concerns the target T2, human CB2 receptor (Homo sapiens, UniProt P34972).
T2 construct: expressed in transfected cells; host or cells: CHO cells
Description: In vitro radioligand binding, [3H] WIN55212-2, recombinant CHO cells. Also noted: % of inhibition of binding of specific control, 1st/2nd measurement: unit of the concentration uncertain. The conditions noted are these: for % of inhibition of binding of specific control, 1st/2nd measurement: radioligand agonist WIN 55212-2. The procedure:
(§1) In vitro binding assays were performed using recombinant CHO cells expressing human CB2 receptor and [3H]

A further series concerns CB1 receptor. Description: Screening with anti-CB1 antibodies sensitive to activation/conformational changes, ELISA on Striatum membranes. Type of series: binding. To be noted: ligands 1 μM; Assay 1-5. How it is done: Antibodies sensitive to CB1 receptor activation were generated and characterized by their specificities. For screening compounds, Striatum membranes (5 μg per well) were plated on NUNC-Immuno 96-well plates (Nalge-Nunc) and dried at room temperature. Membranes were washed with PBS (phosphate buffered saline) and incubated with or without different ligands (1 μM) and the extent of receptor recognition by the antibodies was measured by ELISA. The results of the tests are shown in Table 5, which indicates the % binding to the CB1 receptor in relation to control: […]
On the technique in general: An ELISA detects its analyte on a solid surface through an enzyme-linked reagent.

The subject of the next series is pain threshold. Description: Pain threshold model, pressure apparatus on right paw. To be noted: for pain threshold, force: oral, 0.5 to 0.25 mg/kg, individual animals. In kind it is in vivo, rats. The procedure:
The compounds of the present invention have also been tested as analgesics or neuropathic pain modulators. To that end, the compounds PVNFKF, PVNFK, VNFKF, SEQ ID No. 1 were tested in the pain threshold model. The pain threshold was measured using a pressure apparatus (Ugo Basile, Italy), essentially as described (Randall and Selitto, 1957). Briefly, a force of increasing magnitude (16 g/s) was applied to the back of the right paw of rats. When animals react by kicking, the force in grams required to induce this response is the threshold of pain. Antinoniceptive activity was expressed as the increase in pain threshold compared to control animals.
The compounds of the invention were administered orally to the animals at doses of 0.5 to 0.25 mg/kg and saline was used as a control.

Series [3] addresses T3, recombinant human CB2 cannabinoid receptor (human, UniProt P34972 1-360).
T3 construct: whole, on cells; also called human CB2 receptor
Description: [3H]WIN 55212-2 radioligand displacement on CHO cells expressing human CB2. The procedure: as §1

[4] abbreviates: FIG. 6, 500 μg/kg before pilocarpine.

Several values for one entry are separate records, joined by “and”; a condition that tells them apart may be missing. Equal entries are not always repeated. Entries after “also recorded” stand apart in the source; their conditions may differ. Peptide text beside a SMILES is read from it.

T2 sequence (P34972 whole entry): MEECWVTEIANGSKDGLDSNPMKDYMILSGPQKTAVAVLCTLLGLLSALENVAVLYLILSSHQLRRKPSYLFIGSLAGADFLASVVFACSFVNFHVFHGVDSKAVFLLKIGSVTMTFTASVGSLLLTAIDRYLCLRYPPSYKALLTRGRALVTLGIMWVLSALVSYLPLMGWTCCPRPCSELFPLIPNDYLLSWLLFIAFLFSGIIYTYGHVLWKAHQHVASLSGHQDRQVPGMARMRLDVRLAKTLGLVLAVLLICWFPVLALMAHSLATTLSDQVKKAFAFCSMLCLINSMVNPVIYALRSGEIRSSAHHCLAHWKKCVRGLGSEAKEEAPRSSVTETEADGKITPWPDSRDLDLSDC
T1 sequence (P21554 whole entry): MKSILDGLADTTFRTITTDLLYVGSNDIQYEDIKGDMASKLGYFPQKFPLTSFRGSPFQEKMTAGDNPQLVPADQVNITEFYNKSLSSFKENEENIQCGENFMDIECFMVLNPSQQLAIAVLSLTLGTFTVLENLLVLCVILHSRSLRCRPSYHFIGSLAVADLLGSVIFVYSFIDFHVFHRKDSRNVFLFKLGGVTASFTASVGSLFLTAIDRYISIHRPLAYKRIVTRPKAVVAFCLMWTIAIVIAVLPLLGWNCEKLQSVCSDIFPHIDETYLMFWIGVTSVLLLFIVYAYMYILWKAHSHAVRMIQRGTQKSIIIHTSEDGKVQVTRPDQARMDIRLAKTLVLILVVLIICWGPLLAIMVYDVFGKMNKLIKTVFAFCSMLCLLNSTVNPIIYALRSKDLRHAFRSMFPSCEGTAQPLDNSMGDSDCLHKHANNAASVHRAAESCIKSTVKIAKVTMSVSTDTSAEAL
T3 sequence (P34972 whole entry): as the sequence (P34972 whole entry) above

With `CCCCCCC(C)(C)c1ccc([C@@H]2C[C@H](O)CC[C@H]2CCCO)c(O)c1` [CP 55940, reference compound], the nH at human CB1 receptor (reference radioligand agonist) is recorded as 1.
In the case of `NCCCCC(NC(=O)C(Cc1ccccc1)NC(=O)C(N)CC(N)=O)C(=O)NC(Cc1ccccc1)C(=O)O` (stereo not drawn) [SEQ ID No. 1] (H-NFKF-OH; configuration not given here), in series [1], the “clinical symptoms (Clinical Score)” value is recorded as “impressive reduction of clinical symptoms”. For the same molecule, the “time for first salivation vs control (significance)” value in the series with pilocarpine model (FIG. 4, cannabidiol 30 mg/kg, SEQ ID No. 1 500 μg/kg) is “does not present statistical significance”. In addition, in the series with pilocarpine model (setting [4]), the “number of animals that died” value is “two” and the “remaining animals alive for more than a week” value is 3 animals. In addition, in the series on pilocarpine model (SEQ ID No. 1 500 μg/kg, cannabidiol 30 mg/kg), the “prostration and nasal bleeding” value is reported as “no occurrence of prostration or nasal bleeding; also recorded: non-occurrence of prostration or nasal bleeding”. In the series with pilocarpine model (Table 1, oral, 10 minutes prior to pilocarpine 320 mg/kg i.p., individual animals), the “time of occurrence of the first salivation” value is 3.2 min and 1.83 min and 1.97 min and 2.73 min and 1.58 min. In the series on pilocarpine model (Table 2, oral, 10 minutes prior to pilocarpine 320 mg/kg i.p., individual animals), the “time of occurrence of the first signal” value is 12.33 min and 8.43 min and 10.23 min and 13.53 min and 9.9 min. Besides, the “time of occurrence of the first seizure” value in the series with pilocarpine model (Table 3, oral, 10 minutes prior to pilocarpine 320 mg/kg i.p., individual animals) was 17.88 and 15.17 and 19.95 and 15.18 and 16. Further, the “time of death occurrence” value in the series on pilocarpine model (Table 4, oral, 10 minutes prior to pilocarpine 320 mg/kg i.p., individual animals) is 18.92 min and 20 min and 15.18 min and 10.87 min. In addition, in series [2] (control sample, n=2), the “area of the HPLC peak, control” value is reported as 120. In addition, in series [2] (freezing for 24 h), the “area of the HPLC peak after freezing” value turned out to be 100 and the “part lost or degraded by freezing” value is 16.7%. Further, the “degradation upon heating (in words)” value in series [2] (heating at 100° C. for 10 minutes) is reported as “did not suffer statistically significant degradation”. For the same molecule, the “% of inhibition of binding of specific control, 1st/2nd measurement” value at human CB2 receptor (1 (unit uncertain)) is 3.5% and 0.3%. Further, the “% of inhibition of binding of specific control, 1st/2nd measurement” value at human CB2 receptor (10 (unit uncertain)) was determined as 13.1%. In addition, the “modulation in binding of the radioligand (in words)” value at human CB2 receptor (conditions tested) was “did not provide significant modulation”. Besides, in the series on CB1 receptor, the “% binding to the CB1 receptor in relation to control” value was 90.27% and 84.41% and 90.19% and 77.88% and 65.39%. In the series with pain threshold (After 3 h), the “pain threshold, force” value was 80 grams (2×) and 70 grams (3×) and 75 grams. Besides, the “pain threshold, force” value in the series with pain threshold (Immediate) was 70 grams and 75 grams (3×) and 80 grams and 60 grams. For the same molecule, in the series on pain threshold (after 3 h), the “greater pain threshold compared to PVNFKF” value was determined as 50.1%. The inhibition at 1 µM at human CB1 receptor (1 µM, radioligand agonist CP55940, read-out: % of inhibition of binding of specific control, Mean value) was -74.6%. Moreover, on human CB1 receptor (10 µM, radioligand agonist CP55940, read-out: % of inhibition of binding of specific control, Mean value), the inhibition at 10 µM was -9.9%.

B1: tetrapeptide SEQ ID No. 1 (peptide)
peptide: NFKF
notes: Synthetic peptide; for the radioligand assays it was a 10 mM stock solution in DMSO
On to B1, for which the binding result in series [3] is “no binding (tested: 1 and 10 µM)”.

A word on the inhibition: it is the change of the read-out against control, counted positive when it falls.
